Paper PMC6095626, “Screening of the Pathogen Box for inhibitors with dual efficacy against Giardia lamblia and Cryptosporidium parvum” (PLoS Neglected Tropical Diseases, 2018)

Assays:
[1] = tested on: G. lamblia trophozoites (luciferase expressing, WBC6); assay: microbe, parasite or virus in culture; type: cell-based, Giardia lamblia; details: for Giardia (16 uM) Mean % inhibition: initial Pathogen Box screen, single concentration 16 µM, inhibition compared to DMSO wells
How it was run: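 Luciferase-expressing WBC6 trophozoites plated at 250,000 cells/mL, compounds added 1:1, incubated anaerobically (GasPak bags) at 37 °C for 24 h; viability read by bioluminescence, with duplicate plates counted on a MOXI Z cell counter. Metronidazole control serially diluted 1:2 from 40 μM.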

[2] = tested on: C. parvum (UGA1 Nluc expressing strain in HCT-8 cells); assay: microbe, parasite or virus in culture; type: cell-based, Cryptosporidium parvum; details: initial Pathogen Box screen, single concentration 10 µM, inhibition compared to DMSO wells
How it was run: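 HCT-8 monolayers grown 48 h to 90–100% confluence, treated with compound at 10 μM or serial dilutions, then infected with bleach-treated UGA1 Nluc C. parvum oocysts.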

CN1CCN(S(=O)(=O)c2ccc(-c3ccc4c(Nc5ncc(Cl)cn5)ccnc4c3)cc2)CC1 [MMV688283]
G. lamblia inhibition of parasite growth in the initial screen ([1]; 16 μM, 24 hours): ≥ 95% | Giardia (16 uM) Mean % inhibition [1]: 95% | G. lamblia EC50 ([1]; luciferase expressing G. lamblia trophozoites, 24 hours, D-luciferin bioluminescence read-out): not potent | Crypto (10 uM) Mean % inhibition [2]: 89%

COc1ccc(-c2nnc3ccc(-c4cccc(C(C)C)c4)cn23)cc1OC [MMV688313]
Giardia (16 uM) Mean % inhibition [1]: 26% | Crypto (10 uM) Mean % inhibition [2]: 34%

CC(=O)NC[C@H]1CN(c2ccc(-c3ccc(CNCc4cn[nH]n4)cc3)c(F)c2)C(=O)O1 [MMV688327]
Giardia (16 uM) Mean % inhibition [1]: 21% | Crypto (10 uM) Mean % inhibition [2]: 33%

CC(=O)N1CCN(c2ccc(Oc3ccc(Cl)cc3O)cc2)CC1 [MMV688330]
Giardia (16 uM) Mean % inhibition [1]: X* (Mean or standard deviation are negative but not significantly different from the control to be a growth promoter) | Crypto (10 uM) Mean % inhibition [2]: 56%

Nc1nc(N)c2c3c(sc2n1)CN(Cc1ccccc1)CC3 [MMV688345]
Giardia (16 uM) Mean % inhibition [1]: 16% | Crypto (10 uM) Mean % inhibition [2]: X* (Mean or standard deviation are negative but not significantly different from the control to be a growth promoter)

COC(=O)c1ccc(F)cc1NS(=O)(=O)c1cccc(-c2cnn(Cc3ccccc3)c2)c1 [MMV688350]
Giardia (16 uM) Mean % inhibition [1]: -6% | Crypto (10 uM) Mean % inhibition [2]: 53%

O=C1[C@@H](Oc2ccccc2)[C@@H](c2ccc(Cl)cc2)N1CCn1cnc2c(NCc3ccccc3)ncnc21 [MMV688352]
Giardia (16 uM) Mean % inhibition [1]: 41% | Crypto (10 uM) Mean % inhibition [2]: X* (Mean or standard deviation are negative but not significantly different from the control to be a growth promoter)

c1cc(C2=NCCN2)cc(-c2cc(-c3ccc(C4=NCCN4)cc3)no2)c1 [MMV688361]
Giardia (16 uM) Mean % inhibition [1]: 38% | Crypto (10 uM) Mean % inhibition [2]: 44%

COc1cc(C2=NCCN2)cc2cc(-c3ccc(C4=NCCN4)cc3)oc12 [MMV688362]
Giardia (16 uM) Mean % inhibition [1]: 54% | Crypto (10 uM) Mean % inhibition [2]: 67%

CC(C)(C)OC(=O)N1CCC(Cn2nc(-c3cnc4ccccc4c3)c3c(N)ncnc32)CC1 [MMV688364]
Giardia (16 uM) Mean % inhibition [1]: 56% | Crypto (10 uM) Mean % inhibition [2]: X* (Mean or standard deviation are negative but not significantly different from the control to be a growth promoter)

NCCN(C(=O)c1ccc(Cl)cc1Cl)c1ccc(OCc2ccc(Cl)cc2)cc1 [MMV688371]
Giardia (16 uM) Mean % inhibition [1]: 72% | Crypto (10 uM) Mean % inhibition [2]: 76%

O=C(Nc1ccc(F)c(-c2nc3ncc(-c4ccccc4)cc3[nH]2)c1)N1CCCC1 [MMV688372]
Giardia (16 uM) Mean % inhibition [1]: 24% | Crypto (10 uM) Mean % inhibition [2]: 48%

COc1cc(C2=NCCN2)ccc1-c1cn(-c2cccc(C3=NCCN3)c2)nn1 [MMV688407]
Giardia (16 uM) Mean % inhibition [1]: 50% | Crypto (10 uM) Mean % inhibition [2]: X* (Mean or standard deviation are negative but not significantly different from the control to be a growth promoter)

CC1=Nc2ccc(Cl)cc2C(c2ccccc2)N1CCNC(=O)CN(C)C (centres unmarked) [MMV688410]
Giardia (16 uM) Mean % inhibition [1]: 20% | Crypto (10 uM) Mean % inhibition [2]: 62%

Nc1ncnc2c1c(-c1cnc3ccccc3c1)nn2CC1CCNCC1 [MMV688411]
Giardia (16 uM) Mean % inhibition [1]: X* (Mean or standard deviation are negative but not significantly different from the control to be a growth promoter) | Crypto (10 uM) Mean % inhibition [2]: X* (Mean or standard deviation are negative but not significantly different from the control to be a growth promoter)

CO[C@@H]1CN(c2ccc(C#CC3(O)CN4CCC3CC4)c(Cc3ccccc3)n2)C[C@H]1O (some centres unmarked) [MMV688415]
Giardia (16 uM) Mean % inhibition [1]: X* (Mean or standard deviation are negative but not significantly different from the control to be a growth promoter) | Crypto (10 uM) Mean % inhibition [2]: X* (Mean or standard deviation are negative but not significantly different from the control to be a growth promoter)

CC(C)(C)OC(=O)N1CCN(c2nccc(-c3ccc(-c4ccc(Cl)cc4)s3)n2)CC1 [MMV688416]
Giardia (16 uM) Mean % inhibition [1]: 55% | Crypto (10 uM) Mean % inhibition [2]: 41%

CC(C)n1nc(-c2cc3c(Cl)cccc3[nH]2)c2c(N)ncnc21 [MMV688417]
Giardia (16 uM) Mean % inhibition [1]: 77% | Crypto (10 uM) Mean % inhibition [2]: 85%

Cn1ccnc1CNCCS(=O)(=O)c1cccc(Nc2ccc(-c3cccc(F)c3)cn2)c1 [MMV688466]
Giardia (16 uM) Mean % inhibition [1]: 28% | Crypto (10 uM) Mean % inhibition [2]: 43%

CCCCN(CCCC)c1c(C#N)cc(S(=O)(=O)Nc2ccccc2)cc1C#N [MMV688467]
Giardia (16 uM) Mean % inhibition [1]: 60% | Crypto (10 uM) Mean % inhibition [2]: X* (Mean or standard deviation are negative but not significantly different from the control to be a growth promoter)

Nc1ncnc2n[nH]c(Cc3cccc4ccccc34)c12 [MMV688469]
Giardia (16 uM) Mean % inhibition [1]: 9% | Crypto (10 uM) Mean % inhibition [2]: 57%

CS(=O)(=O)N1CCC(CCn2nc(Cc3cccc4ccccc34)c3c(N)ncnc32)CC1 [MMV688470]
Giardia (16 uM) Mean % inhibition [1]: 23% | Crypto (10 uM) Mean % inhibition [2]: 80%

CC(C(=O)Nc1ccc2oc(-c3ccncc3)nc2c1)c1ccccc1 (centres unmarked) [MMV688471]
Giardia (16 uM) Mean % inhibition [1]: 19% | Crypto (10 uM) Mean % inhibition [2]: X* (Mean or standard deviation are negative but not significantly different from the control to be a growth promoter)

CC(Oc1cccc(Cl)c1)C(=O)Nc1ccc2oc(-c3ccncc3)nc2c1 (centres unmarked) [MMV688472]
Giardia (16 uM) Mean % inhibition [1]: 55% | Crypto (10 uM) Mean % inhibition [2]: X* (Mean or standard deviation are negative but not significantly different from the control to be a growth promoter)

COc1cc(C2=NCCN2)ccc1-n1cc(-c2cccc(C3=NCCN3)c2)nn1 [MMV688474]
Giardia (16 uM) Mean % inhibition [1]: 18% | Crypto (10 uM) Mean % inhibition [2]: X* (Mean or standard deviation are negative but not significantly different from the control to be a growth promoter)

CC(=O)NCC1CN(c2ccc(-c3ccc(CO)cc3)c(F)c2)C(=O)O1 (centres unmarked) [MMV688508]
Giardia (16 uM) Mean % inhibition [1]: X* (Mean or standard deviation are negative but not significantly different from the control to be a growth promoter) | Crypto (10 uM) Mean % inhibition [2]: X* (Mean or standard deviation are negative but not significantly different from the control to be a growth promoter)

O=C(OCc1ccccc1)N1CCC(c2cc(-c3ccncc3)c(-c3ccc(F)cc3)[nH]2)CC1 [MMV688509]
Giardia (16 uM) Mean % inhibition [1]: 41% | Crypto (10 uM) Mean % inhibition [2]: X* (Mean or standard deviation are negative but not significantly different from the control to be a growth promoter)

N=C(N)c1ccc(-c2cc(-c3ccccc3)on2)cc1 [MMV688514]
Giardia (16 uM) Mean % inhibition [1]: 36% | Crypto (10 uM) Mean % inhibition [2]: 79%

CC(C)(C)C(=O)N(CCCCCCN1C[C@H](O)[C@@H](O)[C@H](O)[C@H]1CO)C1CCCCCC1 [MMV688543]
Giardia (16 uM) Mean % inhibition [1]: X* (Mean or standard deviation are negative but not significantly different from the control to be a growth promoter) | Crypto (10 uM) Mean % inhibition [2]: X* (Mean or standard deviation are negative but not significantly different from the control to be a growth promoter)

COc1ccc(C2=NCCN2)cc1-c1cn(-c2cccc(C3=NCCN3)c2)nn1 [MMV688547]
Giardia (16 uM) Mean % inhibition [1]: 33% | Crypto (10 uM) Mean % inhibition [2]: 45%

CC(C)(C)n1nc(-c2ccccc2)c2c(N)ncnc21 [MMV688548]
Giardia (16 uM) Mean % inhibition [1]: 63% | Crypto (10 uM) Mean % inhibition [2]: 94%

CCc1ccccc1-n1c(C)cn2c3c(=O)n(C(C(=O)OC)C(C)C)c(=O)n(C)c3nc12 (centres unmarked) [MMV688550]
Giardia (16 uM) Mean % inhibition [1]: X* (Mean or standard deviation are negative but not significantly different from the control to be a growth promoter) | Crypto (10 uM) Mean % inhibition [2]: 58%

Cc1nn(C(=O)Nc2cccc(C(F)(F)F)c2)c(C)c1Sc1ncccn1 [MMV688552]
Giardia (16 uM) Mean % inhibition [1]: X* (Mean or standard deviation are negative but not significantly different from the control to be a growth promoter) | Crypto (10 uM) Mean % inhibition [2]: X* (Mean or standard deviation are negative but not significantly different from the control to be a growth promoter)

O=C(NCc1ccoc1)N1CCN(Cc2ccc3c(c2)OCO3)CC1 [MMV688553]
Giardia (16 uM) Mean % inhibition [1]: 50% | Crypto (10 uM) Mean % inhibition [2]: 56%

CNc1snc(C)c1C(=O)NCCOc1ccc(OC)cc1 [MMV688554]
Giardia (16 uM) Mean % inhibition [1]: X* (Mean or standard deviation are negative but not significantly different from the control to be a growth promoter) | Crypto (10 uM) Mean % inhibition [2]: X* (Mean or standard deviation are negative but not significantly different from the control to be a growth promoter)

O=C(NCc1ccco1)N1CCN(Cc2ccc(Cl)s2)CC1 [MMV688555]
Giardia (16 uM) Mean % inhibition [1]: 34% | Crypto (10 uM) Mean % inhibition [2]: X* (Mean or standard deviation are negative but not significantly different from the control to be a growth promoter)

NCC(c1cccs1)S(=O)(=O)c1ccccc1 (centres unmarked) [MMV688557]
Giardia (16 uM) Mean % inhibition [1]: -0.156% | Crypto (10 uM) Mean % inhibition [2]: 81%

CN1CCC(c2cc(-c3ccncc3)c(-c3ccc(F)cc3)[nH]2)CC1 [MMV688703]
Giardia (16 uM) Mean % inhibition [1]: 18% | Crypto (10 uM) Mean % inhibition [2]: 84%

Cc1cc2nc(NC(=O)C(C)(C)C)nc(Cl)c2n1Cc1ccc(Cl)cc1 [MMV688704]
Giardia (16 uM) Mean % inhibition [1]: 42% | Crypto (10 uM) Mean % inhibition [2]: 76%

CO/N=C(/C(=O)OC)c1ccccc1CO/N=C(/C)c1cccc(C(F)(F)F)c1 [MMV688754]
Giardia (16 uM) Mean % inhibition [1]: 26% | Crypto (10 uM) Mean % inhibition [2]: X* (Mean or standard deviation are negative but not significantly different from the control to be a growth promoter)

CC(=O)NC[C@H]1CN(c2ccc(N3CCSCC3)c(F)c2)C(=O)O1 [MMV688756]
Giardia (16 uM) Mean % inhibition [1]: 22% | Crypto (10 uM) Mean % inhibition [2]: 39%

CS(=O)(=O)c1ccc(C(=O)N(CC2CCCO2)c2nc3ccccc3s2)cc1[N+](=O)[O-] (centres unmarked) [MMV688761]
Giardia (16 uM) Mean % inhibition [1]: 63% | Crypto (10 uM) Mean % inhibition [2]: 77%
